Columns and labels:
[1] = system: HT-29 cells; assay: Preliminary antiproliferative assessment (MTT) at 10 and 100 μM; format: cell-based, human; settings: for growth inhibitory activities against HT-29 cells (preliminary assay): 10 and 100 μM, 72 h; for cytotoxic profile: result in words
Method: All synthesized compounds were subjected to preliminary antiproliferative assessment that was performed on HT-29 cells using concentrations 10 and 100 μM of synthesized compounds for 72 h and the percentage of cell viability was then calculated. […] Thus, all five compounds were further studied by a detailed dose–response relationship against three different cancerous cell lines HT-29, Hep-G2 and MCF-7.
(§1) Three cancer cell lines were used in the antiproliferative activities experiments, namely, breast cancer cell line (MCF-7) and human hepatoma cell line (HepG-2), and Colorectal cell line (HT-29). The source of cell lines is the health sciences research center-core lab- at princess Nou-rah bint Abdulrahman university. All cell lines were maintained in their optimum media (RPMI-1640 or DMEM) supplemented with 10% fetal bovine serum, 100 U/mL penicillin, and 100 μg/mL streptomycin and incubated in a humidified atmosphere at 37 °C with 5% CO2.
(§2) The MTT assay was used to evaluate the anti-proliferative effect of the synthesized compounds against three human cancer cell lines hepatocellular carcinoma (HepG-2), breast cancer (MCF-7) and Colorectal carcinoma (HT-29). For the preliminary screening, HT-29 cells were seeded in 96-well plates (Thermo Scientific, Waltham, MA, USA)(10^3 cells/well) and incubated for 24 h before the treatment. Then, cells were treated with two concentrations (10 and 100 µM) of the tested compounds for 72 h. After the exposure, MTT assay protocol was performed as described. After evaluation of the preliminary anticancer activity, the promising synthesized compounds (8, 9a, 9b, 10a, and 11) were selected and examined against three cell lines (HepG-2, MCF-7, and HT-29). Cells were exposed to serial concentration ([…]) of the selected compounds and dose–response curves were determined to calculate their IC50 values.

[2] = system: HT-29; assay: MTT dose-response anti-proliferative assay, HT-29; format: cell-based; settings: Homo sapiens; HT-29, MTT
Description: (§3) Doxorubicin was used as a positive reference for the comparison of anticancer activities. The results are tabulated as IC50 value in the μM range, Table 1.
as §1, §2

[3] = system: HepG-2; assay: MTT dose-response anti-proliferative assay, HepG-2; format: cell-based; settings: Homo sapiens, HepG2; HepG-2, MTT
Description: as §3, §1, §2

[4] = system: MCF-7; assay: MTT dose-response anti-proliferative assay, MCF-7; format: cell-based, human
Description: as §3, §1, §2

[5] = system: normal colon epithelial cells (CCD 841 CoN); assay: Selectivity assay (MTT) on non-cancerous cells; format: cell-based; settings: for IC50: Homo sapiens, CCD 841 CoN, 72 h, MTT, read-out: IC50 of Non-Cancer Cells CCD 841; for Selectivity Index (SI) (IC50 of CCD 841/IC50 of HT29): ratio normal CCD 841 / cancer HT-29, 72 h
Method: In an attempt to evaluate the anticancer activity of the compounds, selectivity assay was performed and compounds’ selectivity to malignant cells was determined, reflected by their selectivity index. The selectivity index (SI) was calculated by the ratio of the IC50 value of the selected compounds on normal colon epithelial cells (CCD 841 CoN) to the IC50 value of the compounds on cancer cells (HT-29). […] However, based on the designed strategy, this high selectivity towards cancer cells may be attributed to their ability to target oncogenic kinases.
Cells were plated in 96-well plates (10^3 cells/well), and after 24 h, the compounds in concentrations (0.1 to 100 μM) were incubated for 72 h. MTT procedure was then performed, the ratio of IC50 values of the compounds on non-cancerous cells (CCD 841 CoN) to the IC50 values of the compounds on cancer cells (HT-29) was determined as reported, [23, 24] using the following equation, SI = IC50 of normal cells/IC50 of cancer cells.

[6] = system: protein kinases extracted from HT-29 cell line; assay: Kinase inhibition assessment, single dose, ADP-Glo assay; format: biochemical, human; settings: 20 μM single dose, total intracellular kinases from HT-29, 45 min
Method: Inhibitory activity against kinases of the selected compounds was examined using homogeneous protein kinases extracted from HT-29 cell line. The screening assay was performed in a single dose concentration (20 μM) by using ADP-Glo assay (Promega, Madison, WI, USA).
Briefly, protein kinases were added into a 96-well plate followed by addition of the synthesized compounds at the tested dose (20 μM). After 45 min of exposure, kinase activity was assessed using a luminescent luciferase/luciferin reaction. Luminescence quantification was measured by using a Varioskan™ LUX multimode microplate reader (Thermo Scientific, Waltham, MA, USA). Kinase inhibition effect of tested compounds was expressed as the percentage of remaining kinase activity relative to vehicle kinase reaction.

[7] = biological target: T1, FLT3 (Homo sapiens, UniProt P36888); assay: In-vitro FLT3 kinase enzyme inhibition assay (FLT3 Kinase Assay Kit); format: biochemical; settings: FLT3 1.5 ng/µL, 45 min, mean ± SD, n = 3; read-out: FLT3 kinase inhibitory activity IC50
T1 construct: purchased BD Biosciences, San Diego, CA, USA
T1 sequence (P36888 27-993): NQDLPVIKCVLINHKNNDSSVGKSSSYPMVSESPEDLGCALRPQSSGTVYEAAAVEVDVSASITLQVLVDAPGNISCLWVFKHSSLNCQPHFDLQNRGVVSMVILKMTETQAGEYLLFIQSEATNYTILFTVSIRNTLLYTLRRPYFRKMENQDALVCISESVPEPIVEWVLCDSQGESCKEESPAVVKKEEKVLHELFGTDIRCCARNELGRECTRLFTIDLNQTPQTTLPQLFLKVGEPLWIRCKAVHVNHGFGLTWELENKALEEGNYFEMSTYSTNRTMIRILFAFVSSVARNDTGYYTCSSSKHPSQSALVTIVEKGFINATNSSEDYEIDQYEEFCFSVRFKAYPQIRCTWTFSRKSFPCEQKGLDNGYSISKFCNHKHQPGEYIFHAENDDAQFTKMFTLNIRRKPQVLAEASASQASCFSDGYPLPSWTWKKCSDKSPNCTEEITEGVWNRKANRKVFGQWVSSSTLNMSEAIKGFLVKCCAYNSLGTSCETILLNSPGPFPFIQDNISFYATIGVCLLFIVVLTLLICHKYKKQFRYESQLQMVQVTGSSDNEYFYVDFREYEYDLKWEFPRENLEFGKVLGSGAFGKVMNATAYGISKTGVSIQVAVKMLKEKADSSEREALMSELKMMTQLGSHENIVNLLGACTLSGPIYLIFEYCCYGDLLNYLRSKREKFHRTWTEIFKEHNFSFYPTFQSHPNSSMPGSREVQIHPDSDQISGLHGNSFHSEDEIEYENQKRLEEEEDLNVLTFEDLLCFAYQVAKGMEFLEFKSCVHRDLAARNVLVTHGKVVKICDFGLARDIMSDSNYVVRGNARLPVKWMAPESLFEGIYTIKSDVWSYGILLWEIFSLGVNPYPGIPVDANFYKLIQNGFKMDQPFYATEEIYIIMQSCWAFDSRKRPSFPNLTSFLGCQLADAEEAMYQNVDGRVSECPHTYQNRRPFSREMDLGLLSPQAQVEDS
Method: FLT3 Kinase Assay Kit (BD Biosciences, San Diego, CA, USA) was used to determine the inhibitory selectivity of the selected compounds towards the FLT3 enzyme. briefly, serial dilution of the selected compounds was incubated with FLT3 (1.5 ng/µL) for 45 min in a kinase reaction buffer. The FLT3 enzyme reaction was halted and measured by quantifying the amount of ADP produced during the enzyme reaction. Luminescence values were measured by a Varioskan™ LUX multimode microplate reader (Thermo Scientific, Waltham, MA, USA). IC50 was calculated with nonlinear regression compared with untreated reaction using Prism version 8.4.3 (GraphPad).

## CC1=CC(=O)N(n2c(C)nc3sc4c(c3c2=O)CCCC4)C1=O [Compound 4, 3-Methyl-1-(2-methyl-4-oxo-5,6,7,8-tetrahydrobenzo[4,5]thieno[2,3-d]pyrimidin-3(4H)-yl)-1H-pyrrole-2,5-dione]
[1]; 100 µM, preliminary assay
  growth inhibition at concentration 100 µM: weak growth inhibition
other
  melting point: 125 to 127 °C

## Cc1nc2sc3c(c2c(=O)n1NC(=S)Nc1ccccc1)CCCC3 [Compound 5, 1-(2-Methyl-4-oxo-5,6,7,8-tetrahydrobenzo[4,5]thieno[2,3-d]pyrimidin-3(4H)-yl)-3-phenylthiourea]
other
  melting point: 138 to 140 °C

## Cc1nc2sc3c(c2c(=O)n1N1C(=O)CN(c2ccccc2)C1=S)CCCC3 [Compound 6, 2-Methyl-3-(5-oxo-3-phenyl-2-thioxoimidazolidin-1-yl)-5,6,7,8-tetrahydrobenzo[4,5]thieno[2,3-d]pyrimidin-4(3H)-one]
other
  melting point: 198 to 200 °C

## Cc1nc2sc3c(c2c(=O)n1NCC(=O)Nc1cc(C(C)(C)C)no1)CCCC3 [Compound 7a, 2-(2-Methyl-4-oxo-5,6,7,8-tetrahydrobenzo[4,5]thieno[2,3-d]pyrimidin-3(4H)-ylamino)-N-(3-tert-butylisoxazol-5-yl)acetamide]
other
  melting point: 120 to 122 °C

## Cc1nc2sc3c(c2c(=O)n1NCC(=O)Nc1cc(C(C)(C)C)on1)CCCC3 [Compound 7b, 2-(2-Methyl-4-oxo-5,6,7,8-tetrahydrobenzo[4,5]thieno[2,3-d]pyrimidin-3(4H)-ylamino)-N-(5-tert-butylisoxazol-3-yl)acetamide]
other
  melting point: 128 to 130 °C

## Cc1nc2sc3c(c2c(=O)n1NC(=O)CCl)CCCC3 [Compound 8, 2-Chloro-N-(2-methyl-4-oxo-5,6,7,8-tetrahydrobenzo[4,5]thieno[2,3-d]pyrimidin-3(4H)-yl)acetamide]
[1]
  growth inhibitory activities against HT-29 cells (preliminary assay): moderate to significant
[2]
  IC50: 2 ± 0.62 µM
[3]
  IC50: 13.5 ± 2.7 µM
[4]; Homo sapiens, MCF7, MCF-7, MTT
  IC50: 11 ± 0.8 µM
[5]
  IC50: 151 ± 20.2 µM
  Selectivity Index (SI) (IC50 of CCD 841/IC50 of HT29): 75.5
[6]
  kinase inhibition: 49.6%

## Cc1nc2sc3c(c2c(=O)n1NC(=O)CNc1cc(C(C)(C)C)no1)CCCC3 [Compound 9a, 2-(3-Tert-butylisoxazol-5-ylamino)-N-(2-methyl-4-oxo-5,6,7,8-tetrahydrobenzo[4,5]thieno[2,3-d]pyrimidin-3(4H)-yl)acetamide]
[1]
  growth inhibitory activities against HT-29 cells (preliminary assay): moderate to significant
[2]
  IC50: 1.21 ± 0.34 µM
[3]
  IC50: 6.62 ± 0.7 µM
[4]; Homo sapiens, MCF7, MCF-7, MTT
  IC50: 7.2 ± 1.9 µM
[5]
  IC50: 11.3 ± 5.6 µM
  Selectivity Index (SI) (IC50 of CCD 841/IC50 of HT29): 9.4
[7]
  IC50: 20.4 ± 2.8 µM
other
  melting point: 89 to 92 °C

## Cc1nc2sc3c(c2c(=O)n1NC(=O)CNc1cc(C(C)(C)C)on1)CCCC3 [Compound 9b, 2-(5-Tert-butylisoxazol-3-ylamino)-N-(2-methyl-4-oxo-5,6,7,8-tetrahydrobenzo[4,5]thieno[2,3-d]pyrimidin-3(4H)-yl)acetamide]
[1]
  growth inhibitory activities against HT-29 cells (preliminary assay): moderate to significant
[2]
  IC50: 0.85 ± 0.16 µM
[3]
  IC50: 9.11 ± 0.3 µM
[4]; Homo sapiens, MCF7, MCF-7, MTT
  IC50: 16.3 ± 2.3 µM
[5]
  IC50: 17.2 ± 1.4 µM
  Selectivity Index (SI) (IC50 of CCD 841/IC50 of HT29): 20.2
[6]
  kinase inhibition: 13.05%
[7]
  IC50: 47.6 ± 9.3 µM
other
  melting point: 98 to 100 °C

## Cc1nc2sc3c(c2c(=O)n1NC(=O)CN1CCOCC1)CCCC3 [Compound 10a, N-(2-methyl-4-oxo-5,6,7,8-tetrahydrobenzo[4,5]thieno[2,3-d]pyrimidin-3(4H)-yl)-2-morpholinoacetamide]
[1]
  growth inhibitory activities against HT-29 cells (preliminary assay): moderate to significant
  cytotoxic profile: weak cytotoxic profile
[2]
  IC50: 167 ± 8.15 µM
[3]
  IC50: 188 ± 28.2 µM
[4]; Homo sapiens, MCF7, MCF-7, MTT
  IC50: 105 ± 36.4 µM
[6]
  kinase inhibition: 75.1%
[7]
  IC50: 17.8 ± 3.8 µM
other
  melting point: 222 to 225 °C

## Cc1nc2sc3c(c2c(=O)n1NC(=O)CN1CCN(C)CC1)CCCC3 [Compound 10b, N-(2-methyl-4-oxo-5,6,7,8-tetrahydrobenzo[4,5]thieno[2,3-d]pyrimidin-3(4H)-yl)-2-(4-methylpiperazin-1-yl)acetamide]
[1]
  cytotoxic profile: weak cytotoxic profile
other
  melting point: 187 to 189 °C

## CCOC(=O)c1c(NC(=S)Nc2ccccc2)sc2c1CCCC2 [Compound 11, Ethyl-2-(3-phenylthioureido)-5,6,7,8-tetrahydrobenzo[b]thiophene-3-carboxylate]
[1]
  growth inhibitory activities against HT-29 cells (preliminary assay): moderate to significant
[2]
  IC50: 1.78 ± 0.6 µM
[3]
  IC50: 16.4 ± 5.7 µM
[4]; Homo sapiens, MCF7, MCF-7, MTT
  IC50: 7.53 ± 0.07 µM
[4]; MCF-7, MTT
  IC50: 7.537 ± 0.07 µM
[5]
  IC50: 178 ± 20.4 µM
  Selectivity Index (SI) (IC50 of CCD 841/IC50 of HT29): 99.7
[6]
  kinase inhibition: 79.2%
[7]
  IC50: 40 ± 5.5 µM
other
  melting point: 170 to 172 °C

## Nn1c(Nc2ccccc2)nc2sc3c(c2c1=O)CCCC3 [Compound 12, 3-Amino-2-phenylamino-5,6,7,8-tetrahydrobenzo[4,5]thieno[2,3-d]pyrimidin-4(3H)-one]
[6]
  kinase inhibition: 65.3%
[7]
  IC50: 27.2 ± 5.6 µM
other
  melting point: 198 to 200 °C

## COc1cccc2c1C(=O)c1c(O)c3c(c(O)c1C2=O)C[C@@](O)(C(=O)CO)C[C@@H]3O[C@H]1C[C@H](N)[C@H](O)[C@H](C)O1 [Dox, Doxorubicin, reference compound]
[2]
  IC50: 1.4 ± 1.16 µM
[3]
  IC50: 13.9 ± 2.2 µM
[4]; Homo sapiens, MCF7, MCF-7, MTT
  IC50: 8.43 ± 0.5 µM

From paper PMC8880588, “In-Silico Screening of Novel Synthesized Thienopyrimidines Targeting Fms Related Receptor Tyrosine Kinase-3 and Their In-Vitro Biological Evaluation” (Pharmaceuticals, 2022)
